Test results as given in the supplement of paper PMC10307832.

Legend:
Assay in all cases: relative viability (nuclei count vs DMSO), 5 days (fraction); higher = more cells survive
[1] = compound: C1CNCCC1C2=CC(=NN2)C3=CC=NC=C3 + O=C(c1cc(Cc2n[nH]c(=O)c3ccccc23)ccc1F)N1CCN(C(=O)C2CC2)CC1 [Olaparib] (partner 8 µM)
Procedure, shortened: (§1)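 Lung cancer cell lines were seeded in 1536-well plates and dosed by pin tool the next day, with either a single drug or a fixed anchor-drug dose combined with five library-drug doses (not always all listed) spaced in √10 steps. Five days later, one step fixed the cells and stained their nuclei (final 0.05% Triton X-100, 1% formaldehyde, 1 ug/ml Hoechst), and nuclei were counted on 4× images. Relative viability is the nuclei count in treated wells divided by the count in vehicle wells, and each value is the median of duplicate plates.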

[2] = compound: C[C@@H](N)c1ccc(C(=O)Nc2ccnc3[nH]ccc23)cc1 + Cc1nc(NC(=O)N2CCC[C@H]2C(N)=O)sc1-c1ccnc(C(C)(C)C(F)(F)F)c1 [Alpelisib] (partner 2 µM)
Procedure, shortened: as §1

[3] = compound: C[C@@H](N)c1ccc(C(=O)Nc2ccnc3[nH]ccc23)cc1 + Cc1nc(Nc2ncc(C(=O)Nc3c(C)cccc3Cl)s2)cc(N2CCN(CCO)CC2)n1 [Dasatinib] (partner 0.075 µM)
Procedure, shortened: as §1

[4] = compound: C1CNCCC1C2=CC(=NN2)C3=CC=NC=C3 + C[C@]1(O)C[C@@H](c2nc(-c3ccc4ccc(-c5ccccc5)nc4c3)c3c(N)nccn32)C1 [Linsitinib] (partner 1 µM)
Procedure, shortened: as §1

Cell Line | relative viability ([1]; first compound 0.08 µM) | relative viability ([1]; first compound 0.8 µM) | relative viability ([1]; first compound 2.53 µM) | relative viability ([1]; first compound 8 µM) | relative viability ([2]; first compound 0.04 µM) | relative viability ([2]; first compound 0.1265 µM) | relative viability ([2]; first compound 0.4 µM) | relative viability ([2]; first compound 1.265 µM) | relative viability ([2]; first compound 4 µM) | relative viability ([3]; first compound 0.04 µM) | relative viability ([3]; first compound 0.1265 µM) | relative viability ([3]; first compound 0.4 µM) | relative viability ([3]; first compound 1.265 µM) | relative viability ([3]; first compound 4 µM) | relative viability ([4]; first compound 0.08 µM) | relative viability ([4]; first compound 0.8 µM) | relative viability ([4]; first compound 2.53 µM) | relative viability ([4]; first compound 8 µM)
NCI-H2170 | 0.606 | 0.632 | 0.626 | 0.609 | 0.879 | 0.436 | 0.765 | 0.833 | 0.627 | 0.774 | 0.595 | 0.639 | 0.518 | 0.528 |  |  |  | 
HCC-366 | 0.341 | 0.412 | 0.498 | 0.36 | 0.41 | 0.398 | 0.581 |  | 0.329 | 0.544 | 0.621 | 0.483 |  | 0.508 | 0.55 | 0.756 | 0.712 | 0.622
NCI-H2347 | 0.534 | 0.514 | 0.477 | 0.571 | 1.02 | 0.976 | 1.2 | 1.05 | 0.845 | 0.54 | 0.314 | 0.374 |  | 0.574 | 0.916 | 0.961 | 1.06 | 0.936
COR-L 105 | 0.7 | 0.721 | 0.675 | 0.746 | 0.876 | 1.07 | 0.918 | 0.957 | 0.65 | 0.247 | 0.317 | 0.372 | 0.241 | 0.216 | 0.986 | 0.896 | 0.965 | 0.926
201T | 0.832 | 0.863 | 0.832 | 0.858 | 1.06 | 1.01 | 1.01 | 1.06 | 1.24 | 0.667 | 0.635 | 0.674 | 0.738 | 0.808 | 1.02 | 1.01 | 0.996 | 1.04
NCI-H2126 | 0.933 | 0.875 | 0.923 | 0.939 | 0.828 | 0.795 | 0.79 | 0.82 | 0.881 | 0.72 | 0.664 | 0.622 | 0.626 | 0.619 | 0.718 | 0.636 | 0.789 | 0.748
LC-2-ad | 0.719 | 0.781 | 0.664 | 0.694 | 0.894 | 0.862 | 0.807 | 0.843 | 0.61 | 0.717 | 0.639 | 0.814 |  | 0.389 | 0.805 | 0.825 | 0.909 | 0.869
NCI-H2085 | 0.903 |  | 0.807 | 0.746 | 1 | 0.923 | 0.925 | 0.936 | 0.966 | 0.294 | 0.322 | 0.421 | 0.33 | 0.391 | 0.975 | 0.732 | 1.1 | 0.95
NCI-H358 | 0.48 | 0.691 | 0.648 | 0.525 | 0.846 | 0.739 | 0.821 | 0.767 | 0.73 | 0.173 | 0.193 | 0.169 | 0.165 | 0.18 | 0.595 | 0.792 | 0.688 | 0.765
H3255 | 0.562 | 0.567 | 0.601 | 0.608 | 0.774 | 0.742 | 0.806 | 0.716 | 0.673 | 0.344 | 0.432 | 0.519 | 0.331 | 0.4 | 0.858 | 1.13 | 0.957 | 0.993
NCI-H2228 | 0.617 | 0.747 | 0.575 | 0.549 | 0.822 | 0.824 | 0.934 | 0.766 | 1.01 | 0.677 | 0.505 | 0.546 | 0.482 | 0.436 | 0.734 | 0.869 | 0.503 | 0.811
CAL-12T | 0.676 | 0.665 | 0.753 | 0.719 | 1.37 | 1.36 | 1.43 | 1.54 | 0.903 | 0.52 | 0.524 | 0.461 | 0.316 | 0.338 | 0.792 | 0.754 | 0.9 | 0.872
A-427 | 0.589 | 0.775 | 0.752 | 0.716 | 1.12 | 1.13 | 1.08 |  | 1.07 | 0.483 | 0.666 | 0.707 |  | 0.506 | 1.09 | 1.09 | 1.15 | 1.07
HARA | 0.762 | 1.27 | 1.21 | 1.11 | 0.813 | 0.928 | 0.914 | 0.796 | 0.598 |  | 0.287 | 0.225 |  | 0.237 | 0.938 | 1.07 | 0.983 | 0.939
NCI-H1793 | 0.748 |  | 0.902 | 0.953 | 0.853 | 0.672 | 0.704 |  | 0.833 | 0.308 | 0.419 | 0.418 |  | 0.298 | 0.67 | 0.669 | 0.922 | 0.876
NCI-H1623 |  |  |  |  |  |  |  |  |  | 0.619 | 0.501 | 0.602 | 0.21 | 0.709 |  |  |  | 
